Tests used:
[1] = Half life to reach the blood concentration was determined in dogs after oral administration (10 mg/kg) as a 0.05 M citric acid solution.; assay type: ADME, organism-based, Canis lupus familiaris; conditions: dog
[2] = test system: MT4; test: Antiviral activity in MT-4 human lymphoid cells infected with IIIB isolate by viral spread assay; assay type: functional; conditions: read-out: CIC95
[3] = Area under curve was determined in dogs after oral administration (10 mg/kg) as a 0.05 M citric acid solution.; assay type: ADME, organism-based, Canis lupus familiaris; conditions: dog, in vivo
[4] = Maximum time taken to reach maximum blood concentration was determined in dogs after oral administration (10 mg/kg) as a 0.05 M citric acid solution.; assay type: ADME, organism-based, Canis lupus familiaris; conditions: dog
[5] = Maximum plasma concentration in dogs after oral administration (10 mg/kg) as a 0.05 M citric acid solution.; assay type: ADME, organism-based, Canis lupus familiaris; parameters: dose 10 mg/kg, route oral; conditions: dog
[6] = Maximum time taken to reach maximum blood concentration was determined in dogs after oral administration (8 mg/kg) as a 0.05 M citric acid solution.; assay type: ADME, organism-based, Canis lupus familiaris; conditions: dog
[7] = Half life to reach the blood concentration was determined in dogs after oral administration (8 mg/kg) as a 0.05 M citric acid solution.; assay type: ADME, organism-based, Canis lupus familiaris; conditions: dog
[8] = Area under curve was determined in dogs after oral administration (8 mg/kg) as a 0.05 M citric acid solution.; assay type: ADME, organism-based, Canis lupus familiaris; conditions: dog, in vivo
[9] = Maximum plasma concentration in dogs after oral administration (8 mg/kg) as a 0.05 M citric acid solution.; assay type: ADME, organism-based, Canis lupus familiaris; parameters: dose 8 mg/kg, route oral; conditions: dog
[10] = target: Human immunodeficiency virus type 1 protease (Human immunodeficiency virus 1, UniProt Q72874); test: In vitro inhibitory activity against HIV-1 protease enzyme.

SMILES | half-life [1] [min] | IC95 [2] [nM] | AUC [3] [µM·h] | Tmax [4] [min] | Cmax [5] [µM] | Tmax [6] [min] | half-life [7] [min] | AUC [8] [µM·h] | Cmax [9] [µM] | IC50 [10] [nM]
CCc1cc(CN2CCN(C[C@@H](O)[C@H](Cc3ccccc3)NC(=O)O[C@@H]3CCS(=O)(=O)[C@@H]3C(C)C)[C@H](C(=O)NC(C)(C)C)C2)cc(CC)n1 | 36 | 42 | 2.9 | 25 | 3 |  |  |  |  | 
CCCCc1cc(CN2CCN(C[C@@H](O)[C@H](Cc3ccccc3)NC(=O)O[C@@H]3CCS(=O)(=O)[C@@H]3C(C)C)[C@H](C(=O)NC(C)(C)C)C2)cc(CCCC)n1 |  | 25 |  |  |  |  |  |  |  | 
CC(C)c1cc(CN2CCN(C[C@@H](O)[C@H](Cc3ccccc3)NC(=O)O[C@@H]3CCS(=O)(=O)[C@@H]3C(C)C)[C@H](C(=O)NC(C)(C)C)C2)ccn1 |  | 67 |  |  |  |  |  |  |  | 
CCCc1cc(CN2CCN(C[C@@H](O)[C@H](Cc3ccccc3)NC(=O)O[C@@H]3CCS(=O)(=O)[C@@H]3C(C)C)[C@H](C(=O)NC(C)(C)C)C2)ccn1 |  | 12 |  |  |  | 25 | 21 | 1.5 | 2.3 | 
CC(C)[C@@H]1[C@H](OC(=O)N[C@@H](Cc2ccccc2)[C@H](O)CN2CCN(Cc3ccncc3)C[C@H]2C(=O)NC(C)(C)C)CCS1(=O)=O | 24 | 200 | 4.3 | 25 | 6.7 |  |  |  |  | 
CCC(C)c1cc(CN2CCN(C[C@@H](O)[C@H](Cc3ccccc3)NC(=O)O[C@@H]3CCS(=O)(=O)[C@@H]3C(C)C)[C@H](C(=O)NC(C)(C)C)C2)ccn1 (stereo not given in full) |  | 25 |  |  |  |  |  |  |  | 1.2
Cc1cc(CN2CCN(C[C@@H](O)[C@H](Cc3ccccc3)NC(=O)O[C@@H]3CCS(=O)(=O)[C@@H]3C(C)C)[C@H](C(=O)NC(C)(C)C)C2)cc(C)n1 |  | 50 |  |  |  | 40 | 28 | 4.5 | 3.6 | 
Cc1cc(CN2CCN(C[C@@H](O)[C@H](Cc3ccccc3)NC(=O)O[C@@H]3CCS(=O)(=O)[C@@H]3C(C)C)[C@H](C(=O)NC(C)(C)C)C2)ccn1 | 121 | 75 | 7.4 | 10 | 8.6 |  |  |  |  | 
CCc1cc(CN2CCN(C[C@@H](O)[C@H](Cc3ccccc3)NC(=O)O[C@@H]3CCS(=O)(=O)[C@@H]3C(C)C)[C@H](C(=O)NC(C)(C)C)C2)ccn1 | 91 | 81 | 5.4 | 20 | 4.1 |  |  |  |  | 
CC(C)c1cc(CN2CCN(C[C@@H](O)[C@H](Cc3ccccc3)NC(=O)O[C@@H]3CCS(=O)(=O)[C@@H]3C(C)C)[C@H](C(=O)NC(C)(C)C)C2)cc(C(C)C)n1 |  | 50 |  |  |  |  |  |  |  | 

Source: ChEMBL document CHEMBL1128832, “Substituted alkylpyridines as P3 ligands for the hydroxyethylpiperazine class of HIV-1 protease inhibitors: Improved pharmacokinetic profiles” (Bioorg Med Chem Lett, 1995)
